Experimental data as given in publication PMC9927457 (Microbiology Spectrum, 2023).

Tests used:
CYP2C9 = CYP2C9 (Homo sapiens, UniProt P11712); assay: biochemical
Method: (§1) Table S4. Inhibition of cytochrome P450s.
(§2) Compounds were tested for inhibition of P450s using the enzyme substrate pairs and conditions noted. IC50s (µM) were calculated. Control P450 inhibitors were included for each isoform. […]
(§3) Serial dilutions of a 10 mM stock solution were prepared in acetonitrile:DMSO (9:1). The final DMSO concentration was < 0.2%. Compounds were incubated with human liver microsomes in the presence of 2 mM NADPH in 100 mM potassium phosphate (pH 7.4) containing 5 mM magnesium chloride and a probe substrate, in a 200 µl assay final volume in duplicate. The probe substrate concentrations including bupropion (CYP2B6), amodiaquine (CYP2C8), tolbutamide (CYP2C9), mephenytoin (CYP2C19), dextromethorphan (CYP2D6) and midazolam/testosterone […]
(§4) After incubation at 37 °C, reactions were terminated by addition of methanol containing internal standard (propranolol) for analytical quantification. The quenched samples were kept on ice for 10 min and centrifuged at 4 °C for 10 min. The supernatant was removed and the probe substrate metabolite was analyzed by LC-MS/MS (Agilent Technologies Triple Quad LC/MS). A decrease in the formation of the metabolite compared to vehicle control

Caco-2 cells = assay: Caco-2 permeability; details: for recovery: human, 10 μM
Method: (§5) Permeability was measured across Caco-2 cells cultured in a Millipore 96-well Caco-2 plate. For apical to basolateral (A→B) permeability, 10 μM compound was added to the apical (A) side and amount of permeation was determined on the basolateral (B) side; for basolateral to apical (B→A) permeability, the compound was added to the B side and the amount of permeation was determine on the A side. Time points were taken at 2 h.
(§6) Table S2. Permeability. Permeability was measured using Caco-2 cells after 1 and 2 hours incubation with compound. (A→B) is Apical to Basolateral; (B→A) is Basolateral to Apical. Data is expressed as permeability (10-6 cm s-1). dQ/dt is rate of permeation, C0 is initial concentration […]
(§7) Article Duration direction value replicate replicate mean recovery

in vitro = details: human; for Papp A→B at 2 h, 10 µM / Papp B→A at 2 h, 10 µM / efflux ratio at 2 h, 10 µM: Caco-2
Method: as §5, §6, §7

RAW 264.7 macrophages = assay: Cytotoxicity against infected macrophages; format: cell-based, murine; details: Mus musculus; infected RAW264:7 cells, 72 h; read-out: IC50 Macrophage
Method: Murine RAW 264.7 macrophages (ATCC TIB-71) were infected with M. tuberculosis DsRed (DREAM8) ([29]) as described at a multiplicity of infection of 1 for 24 h, washed, harvested, and dispensed into 384-well plates ([30]). Infected macrophages were exposed to compounds for 72 h; cell nuclei were stained with SYBR green I. Plates were imaged with an ImageXpress Micro High Content Screening System (Molecular Devices) using a ×4 objective and FITC and Texas Red channels. MetaXpress was used to determine the integrated intensity of bacteria or macrophages. […] Isoniazid and staurosporine controls (maximum inhibition) and dose responses were included on every plate.

CYP2C19 = CYP2C19 (Homo sapiens, UniProt P33261); assay: biochemical
Chain of CYP2C19 (P33261 whole entry): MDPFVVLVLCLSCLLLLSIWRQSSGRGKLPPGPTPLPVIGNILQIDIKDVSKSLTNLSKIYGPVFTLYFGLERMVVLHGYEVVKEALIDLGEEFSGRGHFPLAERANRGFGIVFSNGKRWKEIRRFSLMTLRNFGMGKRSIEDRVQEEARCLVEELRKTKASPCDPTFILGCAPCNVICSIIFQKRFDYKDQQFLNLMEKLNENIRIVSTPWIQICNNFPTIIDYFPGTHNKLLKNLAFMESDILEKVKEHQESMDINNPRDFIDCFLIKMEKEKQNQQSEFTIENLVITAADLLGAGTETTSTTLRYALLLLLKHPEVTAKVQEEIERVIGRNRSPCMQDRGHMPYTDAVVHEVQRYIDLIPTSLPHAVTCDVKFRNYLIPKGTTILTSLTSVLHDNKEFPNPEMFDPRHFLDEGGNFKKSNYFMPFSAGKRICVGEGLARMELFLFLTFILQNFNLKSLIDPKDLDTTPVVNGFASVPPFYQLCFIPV
Method: as §1
(§8) Compounds were tested for inhibition of P450s using the enzyme substrate pairs and conditions noted. IC50s (µM) were calculated. Control P450 inhibitors were included for each isoform.
(§9) For each compound, the analytical method was developed as follows. Analyte signal was optimized for each compound by ESI positive or negative ionization mode. An MS2 scan or an SIM scan was used to optimize fragmenter voltage and a product ion analysis was used to identify the best fragment for analysis. The collision energy was optimized using a product ion or MRM scan. An ionization ranking was assigned indicating the compound’s ease of ionization. Samples […]
(§10) 1200 HPLC and a CTC PAL chilled autosampler, all controlled by MassHunter software (Agilent).
(§11) After separation on a C18 reverse phase HPLC column (Agilent Zorbax StableBond 3.5µm, 2.1 x 30 mm) using an acetonitrile -water gradient system, peaks were analyzed by mass spectrometry (MS) using ESI ionization in MRM mode.
(§12) (1 picture or pasted object on this page, not shown here)
as §3, §4

CYP2C8 = biological target: T1, CYP2C8 (Homo sapiens, UniProt P10632); assay: biochemical
T1 sequence (P10632 1-490): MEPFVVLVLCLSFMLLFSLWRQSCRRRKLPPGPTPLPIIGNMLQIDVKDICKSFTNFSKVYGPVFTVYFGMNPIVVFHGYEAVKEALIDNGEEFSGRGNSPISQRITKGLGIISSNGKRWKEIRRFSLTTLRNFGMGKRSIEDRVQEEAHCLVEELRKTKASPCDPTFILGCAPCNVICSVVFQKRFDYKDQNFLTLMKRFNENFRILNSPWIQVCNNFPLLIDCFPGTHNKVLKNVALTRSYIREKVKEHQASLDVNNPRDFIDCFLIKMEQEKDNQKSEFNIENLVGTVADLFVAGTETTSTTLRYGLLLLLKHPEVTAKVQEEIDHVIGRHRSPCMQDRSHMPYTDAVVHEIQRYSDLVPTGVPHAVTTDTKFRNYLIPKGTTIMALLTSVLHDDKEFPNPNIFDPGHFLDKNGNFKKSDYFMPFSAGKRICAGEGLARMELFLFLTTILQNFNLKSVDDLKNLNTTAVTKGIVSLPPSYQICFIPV
Method: as §1, §8, §9, §10, §11, §12, §3, §4

CYP2D6 = CYP2D6 (Homo sapiens, UniProt P10635); assay: biochemical
Chain of CYP2D6 (P10635 whole entry): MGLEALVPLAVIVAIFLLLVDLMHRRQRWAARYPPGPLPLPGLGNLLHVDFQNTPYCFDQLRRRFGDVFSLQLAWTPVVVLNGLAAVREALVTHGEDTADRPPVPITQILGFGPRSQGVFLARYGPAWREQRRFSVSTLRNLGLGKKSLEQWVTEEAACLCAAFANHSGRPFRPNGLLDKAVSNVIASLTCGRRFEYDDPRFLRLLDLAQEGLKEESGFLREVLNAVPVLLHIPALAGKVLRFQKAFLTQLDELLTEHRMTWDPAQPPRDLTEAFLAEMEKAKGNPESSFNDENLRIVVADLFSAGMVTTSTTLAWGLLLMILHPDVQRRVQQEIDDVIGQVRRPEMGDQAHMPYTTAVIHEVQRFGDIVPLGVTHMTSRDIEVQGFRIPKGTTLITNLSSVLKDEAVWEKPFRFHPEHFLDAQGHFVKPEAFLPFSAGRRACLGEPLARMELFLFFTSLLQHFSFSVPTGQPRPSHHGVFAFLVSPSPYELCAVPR
Method: as §1, §2, §10, §11, §3, §4

CYP2B6 = biological target: T2, CYP2B6 (Homo sapiens, UniProt P20813); assay: Cytochrome P450 inhibition
T2 sequence (P20813 1-491): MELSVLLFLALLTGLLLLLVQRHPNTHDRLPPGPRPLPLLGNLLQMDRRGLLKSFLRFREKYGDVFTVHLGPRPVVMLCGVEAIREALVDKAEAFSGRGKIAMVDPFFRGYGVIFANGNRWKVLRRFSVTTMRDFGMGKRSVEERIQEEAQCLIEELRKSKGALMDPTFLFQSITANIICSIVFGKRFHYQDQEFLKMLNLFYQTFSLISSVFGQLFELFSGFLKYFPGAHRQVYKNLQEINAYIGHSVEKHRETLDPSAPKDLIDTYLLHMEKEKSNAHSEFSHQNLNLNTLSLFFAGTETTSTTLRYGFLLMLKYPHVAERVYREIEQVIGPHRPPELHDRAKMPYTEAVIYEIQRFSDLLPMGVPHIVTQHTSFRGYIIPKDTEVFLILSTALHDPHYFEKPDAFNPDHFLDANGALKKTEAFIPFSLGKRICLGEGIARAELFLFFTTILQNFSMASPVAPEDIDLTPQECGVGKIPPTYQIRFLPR
Method: as §1, §8, §9, §10, §11, §12, §3, §4

[1] = Microsomal metabolic stability; details: human; for half-life at 1 µM: liver microsomes
Method: as §5
Table S3. Metabolic stability. Metabolic stability was measured using human liver microsomes. […]

Chain of CYP2C9 (P11712 whole entry): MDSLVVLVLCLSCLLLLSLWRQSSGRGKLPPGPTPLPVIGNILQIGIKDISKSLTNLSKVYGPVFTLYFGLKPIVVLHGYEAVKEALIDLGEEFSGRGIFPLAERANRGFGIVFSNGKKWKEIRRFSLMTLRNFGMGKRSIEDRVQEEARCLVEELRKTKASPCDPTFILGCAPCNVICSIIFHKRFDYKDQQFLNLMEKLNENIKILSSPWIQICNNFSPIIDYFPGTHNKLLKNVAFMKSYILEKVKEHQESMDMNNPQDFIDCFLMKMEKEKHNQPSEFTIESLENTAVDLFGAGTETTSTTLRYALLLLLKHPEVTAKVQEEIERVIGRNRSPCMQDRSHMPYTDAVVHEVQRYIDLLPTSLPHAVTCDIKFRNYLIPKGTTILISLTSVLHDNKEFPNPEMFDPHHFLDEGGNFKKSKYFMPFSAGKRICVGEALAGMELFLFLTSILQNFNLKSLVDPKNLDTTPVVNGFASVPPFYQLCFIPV

| Compound | IC50 (CYP2C9) | dQ/dt (rate of permeation), mean (Caco-2 cells; A→B, assay duration 1 hr) | dQ/dt (rate of permeation), mean (Caco-2 cells; A→B, assay duration 2 hr) | dQ/dt (rate of permeation), mean (Caco-2 cells; B→A, assay duration 1 hr) | dQ/dt (rate of permeation), mean (Caco-2 cells; B→A, assay duration 2 hr) | Papp A→B at 2 h, 10 µM (in vitro) | Papp B→A at 2 h, 10 µM (in vitro) | efflux ratio at 2 h, 10 µM (in vitro) | IC50 (RAW 264.7 macrophages) | IC50 (CYP2C19) | IC50 (CYP2C8) | IC50 (CYP2D6) | IC50 (CYP2B6) | half-life at 1 µM ([1]; pH 7.4) | microsomal CLint at 1 µM ([1]; microsomes, pH 7.4) | further results |
| --- | --- | --- | --- | --- | --- | --- | --- | --- | --- | --- | --- | --- | --- | --- | --- | --- |
| CCCCNC(=S)Nc1nc2ccccc2s1 [Molecule 1, 1-(benzo[d]thiazol-2-yl)-3-butylthiourea] | > 20 µM | 9.7E-06 | 2.1E-05 | 2.4E-05 | 3.8E-05 | 1.4 ×10⁻⁶ cm/s | 2.5 ×10⁻⁶ cm/s | 1.7 | > 100 µM | 4.6 µM | > 20 µM | > 20 µM | > 20 µM | 24 min | 96 µL/min/mg | Percent remaining %REavg ([1]; microsomes, 5 min, 1 µM, pH 7.4): 98.1%; remaining at 5 min, 1 µM ([1]; microsomes, pH 7.4, Percent remaining %REavg): 96.6% |
| CCCCNC(=S)Nc1nc(C)co1 [Molecule 21, 1-butyl-3-(4-methyloxazol-2-yl)thiourea] | > 20 µM | 4.2E-04 | 3.0E-04 | 3.8E-04 | 2.8E-04 | 21 ×10⁻⁶ cm/s | 19 ×10⁻⁶ cm/s | 0.89 | 6 ± 1 µM | > 20 µM | > 20 µM | > 20 µM | > 20 µM | 13 min | 179 µL/min/mg | recovery (Caco-2 cells; Caco-2, 1 h): 77%; recovery (Caco-2 cells; Caco-2, 2 h): 67%; recovery at 1 h, 10 μM (in vitro; Caco-2, recovery): 59%; recovery at 2 h, 10 μM (in vitro; Caco-2, recovery): 56% |
